Source: patent US7723091B2 (priority 1999, dated 2010)
Where “and” joins values, the source holds several entries; their conditions need not be identical. Identical values can stand only once. Like-named read-outs stand apart in the source and are kept apart here. Marks after values point to notes of the source that are not given here.

Experiments:
[1] = system: E. acervulina, E. maxima and Clostridium perfringens; format: in vivo, broiler chickens; details: infected
[2] = system: Eimeria tenella sporozoites; test: In vitro invasion of BHK cells by Eimeria tenella sporozoites; format: cell-based; details: B. cereus PI-PLC 0.0403 U/mL, recombinant 0.261 U/mL
Protocol: (§1) Eineria acervulina sporozoites or Eimeria tenella sporozoites and cultured baby hamster kidney (BHK) cells were prepared by published methods. See Augustine, Avian and Poultry Biology Reviews 1:113-122, 2000. For cell pretreatment, cell cultures were overlaid with dilutions of enzymes as described in Table 11, and examined for morphological changes from 5 to 45 min post overlay. After 45 minutes, the monolayer cultures were washed twice, then inoculated with untreated E. acervulina or E. tenella sporozoites. For application during infection, sporozoites were suspended in the appropriate dilution of the enzyme and inoculated immediately into the cell cultures. After 45 minutes incubation, cultures were fixed, stained, and the invasion was quantified.
(§2) Observations were made looking for changes in gross morphology of sporozoites or cells due to enzyme treatment. At the enzyme levels used in these experiments, no morphological change was noted. The sporozoite invasion of the cultured cells was measured after the two methods of enzyme treatment, as well as without enzyme treatment, by histological staining and microscopy procedures. See Augustine, supra.

[3] = system: E. acervulina, E. maxima, and C. perfringens; format: in vivo, broiler chickens; details: Trial III; infected; no PI-PLC (T4 mannanase 100 MU/ton; T9 salinomycin 60 g/ton+BMD 50 g/ton)
[4] = system: Eimeria acervulina sporozoites; test: In vitro invasion of BHK cells by Eimeria acervulina sporozoites; format: cell-based; details: B. cereus PI-PLC 0.0403 U/mL, recombinant 0.261 U/mL
Protocol: as §1, §2

[5] = system: E. acervulina and Clostridium perfringens; format: in vivo, broiler chickens
[6] = system: E. coli MG1655; test: Cylinder plate assay for antibiotic activity; format: cell-based; details: E. coli MG1655 testing strain
Protocol: Fermentation with Bacillus cereus (ATCC 7004) was conducted according to the method described in EXAMPLE 2 except that the initial volume was increased to 20 liters. A test for the presence of antibiotic was conducted with E. coli MG1655 as the testing strain with final fermentation broth or partially purified PI-PLC prepared according to the method described in EXAMPLES 3-5. The test was conducted as a.cylinder plate assay. See Brantner, Pharmazie 52(1):34-40, 1997.

[7] = system: Eimeria acervulina and Clostridium perfringens; format: in vivo, broiler chickens; details: Trial I
[8] = Trial IV, PI-PLC 30 U/lb, Man. 121 MU/ton, BMD 50 g/ton, salinomycin 60 g/ton
[9] = Cell Pretreatment with Enzyme Followed by Wash, Test 1, mannanase 5100 U/mL
[10] = Cell Pretreatment with Enzyme Followed by Wash, Test 2, mannanase 5100 U/mL
[11] = Trial IV Test 13, Man. 5x at 506 MU/ton
[12] = Application of Enzyme During Infection, Test 2, listed as PI-PLC from B. cereus
[13] = Cell Pretreatment with Enzyme Followed by Wash, Test 1, mannanase 5100 U/mL, listed as PI-PLC from B. cereus
[14] = Cell Pretreatment with Enzyme Followed by Wash, Test 2, mannanase 5100 U/mL, listed as PI-PLC from B. cereus
[15] = Trial II T4 (Rec), T7 (Wt), infected, 10 U/lb
[16] = mean of 4 replicates, infected, PI-PLC 0.34 g/ton pure basis (T3, T4) or Sacox 60 g/ton + BMD-50 50 g/ton (T2) in feed
[17] = single replicate (cage) values, infected, PI-PLC 0.34 g/ton pure basis (T3, T4) or Sacox 60 g/ton + BMD-50 50 g/ton (T2) in feed

For CC[C@@H](C(=O)[C@@H](C)[C@@H](O)[C@H](C)[C@@H]1O[C@@H]([C@@H](CC)C(=O)O)CC[C@@H]1C)[C@H]1O[C@]2(C=C[C@@H](O)[C@]3(CC[C@@](C)([C@H]4CC[C@](O)(CC)[C@H](C)O4)O3)O2)[C@H](C)C[C@@H]1C [S, Salinomycin, reference compound], the “Feed Conversion Day 0-21” value [1, 8] was 1.709, the “Feed Conversion Day 8-21” value [1, 8] was 1.719 and the “Lesion Score E. acer. Upper” value [1, 8] was 1.00. For the same compound, the “Lesion Score E. max. Middle” value [1, 8] was 1.09, the “Live Weight Day 21” value [1, 8] was 0.496 and the “Weight Gain Day 0-21” value [1, 8] was 0.458. For the same compound, the “Weight Gain Day 8-21” value [1, 8] was 0.368.

“Bacitracin methylene disalicylate [reference compound]” was tested, and the “Feed Conversion Day 0-21” value [1, 8] was 1.707, the “Feed Conversion Day 8-21” value [1, 8] was 1.770 and the “Lesion Score E. acer. Upper” value [1, 8] was 2.25. The “Lesion Score E. max. Middle” value [1, 8] was 1.94, the “Live Weight Day 21” value [1, 8] was 0.490 and the “Weight Gain Day 0-21” value [1, 8] was 0.453. For the same compound, the “Weight Gain Day 8-21” value [1, 8] was 0.352.

For endo-1,4- -D-mannanase [β-mannanase], the “Invasion counts (mean ± standard error of the mean)” value ([2]; Application of Enzyme During Infection, Test 1, mannanase 5100 U/mL) was 46 ± 6^ab, the “Invasion counts (mean ± standard error of the mean)” value [2, 9] was 35 ± 1^b and the “Invasion counts (mean ± standard error of the mean)” value [2, 10] was 19 ± 5^a. The “Feed Consumption Day 0-21” value [3] was 10.787^abc, the “Feed Consumption Day 8-21” value [3] was 8.435^abc and the “Feed Conversion Day 0-21” value [3] was 1.501^cd. The “Feed Conversion Day 8-21” value [3] was 1.536^c, the “Lesion Scores E. acer.” value [3] was 1.16^ab and the “Lesion Scores E. max.” value [3] was 1.44^ab. The “Live Wt. Day 21” value [3] was 0.652^bc, the “Weight AF/G Treatment (weight adjusted feed conversion)” value [3] was 1.465 and the “Weight Gain Day 0-21” value [3] was 0.611^bc. The “Weight Gain Day 8-21” value [3] was 0.490^b, the “Feed Conversion Day 0-21” value [1, 11] was 1.740 and the “Feed Conversion Day 8-21” value [1, 11] was 1.813. For the same compound, the “Lesion Score E. acer. Upper” value [1, 11] was 2.13, the “Lesion Score E. max. Middle” value [1, 11] was 2.00 and the “Live Weight Day 21” value [1, 11] was 0.471. The “Weight Gain Day 0-21” value [1, 11] was 0.437, the “Weight Gain Day 8-21” value [1, 11] was 0.339 and the “Feed Conversion Day 0-21” value [1, 8] was 1.803. The “Feed Conversion Day 8-21” value [1, 8] was 1.849, the “Lesion Score E. acer. Upper” value [1, 8] was 1.94 and the “Lesion Score E. max. Middle” value [1, 8] was 1.34. The “Live Weight Day 21” value [1, 8] was 0.483, the “Weight Gain Day 0-21” value [1, 8] was 0.433 and the “Weight Gain Day 8-21” value [1, 8] was 0.338. For the same compound, the “Invasion counts (mean ± standard error of the mean)” value [4, 9] was 16 ± 1^b and the “Invasion counts (mean ± standard error of the mean)” value [4, 10] was 29 ± 2^ab.

In the case of “phosphatidylinositol specific phospholipase C [Wild type PI-PLC]”, the “Invasion counts (mean ± standard error of the mean)” value ([2]; Application of Enzyme During Infection, Test 1, mannanase 5100 U/mL, listed as PI-PLC from B. cereus) is reported as 52 ± 13^ab, the “Invasion counts (mean ± standard error of the mean)” value [2, 12] is reported as 37 ± 2^ab and the “Invasion counts (mean ± standard error of the mean)” value [2, 13] is reported as 38 ± 2^b. For the same compound, the “Invasion counts (mean ± standard error of the mean)” value [2, 14] was 21 ± 2^a, the “8-21 Day Feed Conversion (Corrected)” value [5, 15] was 1.876 and the “8-21 Day Weight Gain” value [5, 15] was 298.98. For the same compound, the “Average Intestinal Lesion Score” value [5, 15] was 1.267, the “effectiveness compared with recombinant counterpart” value ([5]; Trial II, same concentration (10 U/lb)) was “did not work as effectively as its recombinant counterpart” and the “clearing zone indicating antibiotic activity” value [6] was “No clearing zone”. The “Invasion counts (mean ± standard error of the mean)” value ([4]; Application of Enzyme During Infection, Test 1, listed as PI-PLC from B. cereus) was 33 ± 3^b, the “Invasion counts (mean ± standard error of the mean)” value [4, 12] was 25 ± 2^ab and the “Invasion counts (mean ± standard error of the mean)” value [4, 13] was 15 ± 1^b. The “Invasion counts (mean ± standard error of the mean)” value [4, 14] was 26 ± 1^ab, the “performance compared with the Salinomycin+BMD treatment” value ([7]; by all criteria (Tables 4-5)) was “worked as well as or better than the Salinomycin+BMD treatment” and the “Average Body Weight at 21 Days, Mean” value [7, 16] was 378.71 g and 373.14 g. For the same compound, the “Average Feed Conversion (0-21 days) Corrected for Weight of Mortality Birds, Mean” value [7, 16] was 1.425 and 1.419, the “Average Body Weight at 21 Days” value [7, 17] was 377.83 g and 366.67 g and 383.83 g and 361.17 g and 378.83 g and 361.33 g and 374.33 g and 403.40 g and the “Average Feed Conversion (0-21 days) Corrected for Weight of Mortality Birds” value [7, 17] was 1.438 and 1.404 and 1.407 and 1.445 and 1.423 and 1.421 and 1.432 and 1.406.
